The nature of this data set: refractive index (Na D-line) (dimensionless). The settings on record: 293.1 K; 101.33 kPa; Liquid; Standard Abbe refractometry.

Numbers after ± are expanded uncertainties.

As to `O=CN1CCOCC1` [N-formylmorpholine], the refractive index is reported as 1.484 ± 0.0008.

For the molecule `Cc1cccc(C)c1` [1,3-dimethylbenzene], the refractive index is reported as 1.4943 ± 0.0008.

By refractive index is commonly meant the speed of light in vacuum divided by its phase velocity in the sample.

For the origin of these results see the NIST ThermoML archive (doi:10.1016/j.jct.2007.05.001).
